Reference: article PMC10244169, “Psychedelics promote plasticity by directly binding to BDNF receptor TrkB” (Nature Neuroscience, 2023)

What was measured:
GFP-tagged TrkB Y433F = molecular target: T1, GFP-tagged TrkB Y433F (Rattus norvegicus, UniProt Q63604, Y433F); assay: Microscale thermophoresis (MST) in HEK293T lysates; format: binding
T1 construct: expressed in transfected cells; host or cells: HEK293T
Protocol: (§1) MST experiments were performed using the Monolith NT.115 (Blue/Red) instrument (NanoTemper Technologies). Lysates of HEK293T cells expressing GFP-tagged TrkB (WT, Y433F, TrkA.TM) were lysed, vortexed, sonicated and centrifuged 24 h after transient transfection and used as a source of fluorescently labeled TrkB, similarly to previously described protocols[11],[45]–[47]. The advantage of this approach is the possibility of studying the proteins in close-to-native conditions. However, the presence of other proteins, lipids, nucleic acids and other components of crude cell lysates can alter the diffusion of biomolecules and therefore binding affinities. High viscosity and background signal typically results in the affinity values being orders of magnitude […] than those of more traditional binding assays. […] The measurements were performed in premium coated capillaries (NanoTemper Technologies, MO-K025) using a LED source with 470 nm and 50% infrared-laser power at 25 °C. Analysis was performed using MO Affinity Analysis 2.3. Results were fitted to specific binding with Hill slope equations from GraphPad Prism 9.2.

eGFP-tagged TrkB (WT) = molecular target: T2, eGFP-tagged TrkB (WT) (Rattus norvegicus, UniProt Q63604); assay: Microscale thermophoresis (MST) in HEK293T lysates; format: binding
T2 construct: expressed in transfected cells; host or cells: HEK293T
T2 sequence (Q63604 32-821): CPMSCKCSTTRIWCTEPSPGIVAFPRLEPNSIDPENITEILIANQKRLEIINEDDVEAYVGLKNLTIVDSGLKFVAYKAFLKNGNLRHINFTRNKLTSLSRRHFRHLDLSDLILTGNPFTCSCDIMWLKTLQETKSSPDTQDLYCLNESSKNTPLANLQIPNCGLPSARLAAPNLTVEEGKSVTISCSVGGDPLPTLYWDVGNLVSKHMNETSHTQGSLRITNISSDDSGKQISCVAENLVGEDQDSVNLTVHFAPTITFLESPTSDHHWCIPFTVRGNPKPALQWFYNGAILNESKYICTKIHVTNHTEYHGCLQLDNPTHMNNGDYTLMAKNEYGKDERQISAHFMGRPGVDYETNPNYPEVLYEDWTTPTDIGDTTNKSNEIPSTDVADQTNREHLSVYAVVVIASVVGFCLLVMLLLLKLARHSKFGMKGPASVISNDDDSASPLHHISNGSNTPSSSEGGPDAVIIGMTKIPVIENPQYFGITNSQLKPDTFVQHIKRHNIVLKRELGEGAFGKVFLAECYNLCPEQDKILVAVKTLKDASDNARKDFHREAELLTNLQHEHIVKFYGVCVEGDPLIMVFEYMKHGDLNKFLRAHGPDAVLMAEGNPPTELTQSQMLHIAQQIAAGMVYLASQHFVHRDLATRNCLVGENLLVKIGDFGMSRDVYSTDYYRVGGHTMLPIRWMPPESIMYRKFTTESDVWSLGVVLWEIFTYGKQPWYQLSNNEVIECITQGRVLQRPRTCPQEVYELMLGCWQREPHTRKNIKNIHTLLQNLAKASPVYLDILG
Protocol: as §1

GFP-tagged TrkA.TM = assay: Microscale thermophoresis (MST) in HEK293T lysates; format: binding
Protocol: as §1

TrkB (WT) dimerization = molecular target: T3, TrkB (WT) dimerization (Rattus norvegicus, UniProt Q63604); assay: Split-luciferase PCA of TrkB dimerization in N2a cells; format: cell-based; settings: for TrkB dimerization (PCA), group mean (vehicle = 100): WT
T3 construct: expressed in transfected cells; host or cells: N2a
T3 sequence (Q63604 32-821): as above
T3 sequence (Q63604 32-821): as above
Protocol: Ketanserin, M100907 and TRKB.FC were added to the media 10 min before treatment. The PCA method was performed as previously described[11],[75],[76]. Split humanized Gaussia princeps luciferase (hGLuc) was cloned on the C-terminus of the reporter proteins TrkB (WT and Y433F) and lipid raft Fyn. If the reporter proteins that carry complementary halves of the luciferase interact, the enzyme can refold in its functional conformation and, upon addition of its substrate, produce luminescence proportionally to the amount of reporter proteins interacting at a given time. N2a cells were seeded in 96-well plates with opaque walls and transparent bottom (PerkinElmer, ViewPlate 96). Cells were transfected with Lipofectamine 2000 according to the manufacturer’s instructions 24 h post-plating with the PCA pair plasmids: phGLuc(1C)-TrkB(WT) or the mutant phGLuc(1C)-TrkB(Y433F) and phGLuc(2 C)-TrkB(WT) for the dimerization experiments; phGLuc(1C)-lipid raft Fyn and phGLuc(2C)-TrkB(WT) or phGLuc(2C)-TrkB(Y433F) for the lipid raft localization experiments. Forty-eight hours post transfection, cells were treated (40 min, 37 °C) in phenol red-free Dulbecco’s modified Eagle medium without serum. […] The PCA signal was detected with the substrate for the luciferase, native coelenterazine, which was injected into each well directly in the plate reader at a final concentration of […].

mice = assay: Head-twitch response; format: in vivo, mouse; parameters: key to Mean, figure 7c (head-twitch response) / Mean Diff., figure 7d, Vehicle:Saline vs. Vehicle:LSD / Mean Diff., figure 7d, Vehicle:Saline vs. M100907:Saline / Mean Diff., figure 7d, M100907:Saline vs. M100907:LSD / Mean, figure 7d (head-twitch response) / Mean Diff., figure 7c, WT:Saline vs. WT:LSD / Head-twitch response, Mean: head twitch counts (scored every 2 min over 30 min); settings: for Head-twitch response, Mean: ext fig 7d
Protocol: Immediately after the last injection, the animals were placed inside a transparent chamber and their activity video-recorded for 30 min. Similarly to previous studies, head twitches were scored as counts every 2 min by observers blinded to treatments and genotypes.

T1 sequence (Q63604 32-821 Y433F): as the sequence (Q63604 32-821) above, with Y402F counted along it

For `CN(C)CCc1c[nH]c2cccc(O)c12` [PSI, psilocin], the “Bmax (best-fit, 1c/1d)” value (GFP-tagged TrkB Y433F; MST Y433F) was 49.04, the “h (best-fit, 1c/1d)” value (GFP-tagged TrkB Y433F; MST Y433F) was 1.151 and the “binding by MST” value (GFP-tagged TrkB Y433F; Y433F) was “but not to Y433F”. For the same molecule, the “h (best-fit, 1c/1d)” value (eGFP-tagged TrkB (WT); MST WT) was 0.8209, the “Bmax (best-fit, 1c/1d)” value (eGFP-tagged TrkB (WT); MST WT, fit ambiguous) was ~ 268422 and the “binding by MST” value (eGFP-tagged TrkB (WT); native (WT) TrkB) was “directly bind to native TrkB”. The “Bmax (best-fit, 1c/1d)” value (GFP-tagged TrkA.TM) was 151.3, the “h (best-fit, 1c/1d)” value (GFP-tagged TrkA.TM) was 1.115 and the TrkB dimerization (TrkB (WT) dimerization; WT TrkB, N2a cells, 1 nM to 1 µM) was “fast and long-lasting increase in dimerization”. For the same molecule, the “TrkB dimerization (PCA), group mean (vehicle = 100)” value (from here on “TrkB dimerization (PCA), group mean”) (TrkB (WT) dimerization; 1nM) was 146, the “TrkB dimerization (PCA), group mean” value (TrkB (WT) dimerization; 10nM) was 133.7 and the “TrkB dimerization (PCA), group mean” value (TrkB (WT) dimerization; 100nM) was 150.6. For the same molecule, the “TrkB dimerization (PCA), group mean” value (TrkB (WT) dimerization; 1uM) was 166.1.

For `COc1cccc([C@H](O)C2CCN(CCc3ccc(F)cc3)CC2)c1OC` [M100907], the “effect on LSD-induced head-twitch response” value (mice; M100907 0.5 mg kg^−1, 30 min before LSD) was “blocked”, the “Mean, figure 7d (head-twitch response)” value (mice; M100907:Saline group) was 0.2 and the “Head-twitch response, Mean” value (mice; Time (min) 2) was 0.2. The “Head-twitch response, Mean” value (mice; Time (min) 4) was 0, the “Head-twitch response, Mean” value (mice; Time (min) 6) was 0 and the “Head-twitch response, Mean” value (mice; Time (min) 8) was 0. For the same molecule, the “Head-twitch response, Mean” value (mice; Time (min) 10) was 0, the “Head-twitch response, Mean” value (mice; Time (min) 12) was 0 and the “Head-twitch response, Mean” value (mice; Time (min) 14) was 0. The “Head-twitch response, Mean” value (mice; Time (min) 16) was 0, the “Head-twitch response, Mean” value (mice; Time (min) 18) was 0 and the “Head-twitch response, Mean” value (mice; Time (min) 20) was 0. The “Head-twitch response, Mean” value (mice; Time (min) 22) was 0, the “Head-twitch response, Mean” value (mice; Time (min) 24) was 0 and the “Head-twitch response, Mean” value (mice; Time (min) 26) was 0. For the same molecule, the “Head-twitch response, Mean” value (mice; Time (min) 28) was 0, the “Head-twitch response, Mean” value (mice; Time (min) 30) was 0 and the “Mean Diff., figure 7d, Vehicle:Saline vs. M100907:Saline” value (mice; vehicle minus M100907, Bonferroni's multiple comparisons test) was 2.2. The “Group mean (Mean 2; Vehicle:vehicle = 100), fig 4d” value (TrkB (WT) dimerization; M100907 alone (M100907:vehicle), n=20) was 100 and the “effect of pretreatment on LSD- and BDNF-induced TrkB dimerization” value (TrkB (WT) dimerization; ketanserin 100 nM, M100907 100 nM or TrkB.FC 200 ng ml^−1, 10 min before) was “fails to prevent the effects of LSD and BDNF on TrkB dimerization”.
